From patent US20230140972A1, “GLYCEROL GLUCOSIDE-BASED COMPOUND AND COMPOSITION COMPRISING SAME FOR ULTRAVIOLET LIGHT SHIELD OR ANTI-INFLAMMATION” (ATHENA CO., LTD., priority 2020, published 2023)
Several values for one entry are separate records, joined by “and”; a condition that tells them apart may be missing. Equal values may be shown once.

Assays:
[1] = tested on: PGE2 production in RAW264.7 cells; assay: PGE2 production inhibition using ELISA assay; format: cell-based, mouse; conditions: LPS 10 ng/mL
Description: A PGE2 production inhibition ability of the sample in RAW264.7 cells was evaluated using a PGE2 ELISA assay.
(§1) Specifically, subcultured RAW264.7 cells were aliquoted into a 6-well dish at 1.5×10^6 cells/well and cultured for 24 hours at 37° C. in an incubator containing 5% carbon dioxide, and then a culture media was replaced with a serum-free media. Then, each sample was diluted by concentration and treated onto the cells with LPS (final 10 ng/mL). After culturing for 24 hours, the cell culture medium was recovered and a PGE2 ELISA assay was performed.
100 μL of each of a standard solution and a cell culture solution were put into each well, and then 50 μL of PGE2 conjugate and 50 μL of PGE2 antibody were sequentially added and reacted at room temperature for 2 hours. Then, the reaction solution was removed from each well, washing is performed with a wash buffer, 200 μL of a substrate solution was then added, and reacted at room temperature for 45 minutes. Then, 50 μL of a stop solution was added and an absorbance was measured at 405 and 570 nm. Dexamethasone was used as a positive control group. After the test was conducted once, an amount of PGE2 production was calculated by substituting the absorbance value into a PGE2 standard solution calibration curve, and the PGE2 production inhibition rate (%) was calculated using Equation 5 below and expressed as the mean±standard deviation.

[2] = tested on: IL-6 production in RAW264.7 cells; assay: IL-6 production inhibition using ELISA assay; format: cell-based, mouse; conditions: LPS 10 ng/mL
Description: An IL-6 ELISA assay was used to evaluate an IL-6 production inhibition ability of the sample in RAW264.7 cells.
as §1, with “an IL-6” for “a PGE2”
50 μL of an assay diluent was put into each well, and 50 μL of each of a standard solution and a cell culture solution were added to each well and reacted at room temperature for 2 hours. Thereafter, the reaction solution was removed from each well, washed with a wash buffer, 100 μL of IL-6 conjugate was added, and after reaction at room temperature for 2 hours, the reaction solution was removed from each well and washing is performed with a wash buffer.
Next, 100 μL of a substrate solution was added and a reaction under light blocking was carried out at room temperature, and then 100 μL of a stop solution was added, and an absorbance was measured at 450 and 570 nm. Dexamethasone was used as a positive control group. After the test was conducted once, an IL-6 production amount was calculated by substituting the absorbance value into a IL-6 standard solution calibration curve, and then the IL-6 production inhibition rate (%) was calculated using Equation 4 below, and expressed as the mean±standard deviation of the experiment.

[3] = tested on: NO production in LPS-treated RAW264.7 cells; assay: Nitric oxide (NO) production inhibition, non-enzymatic method (Griess); format: cell-based; conditions: Mus musculus, LPS 1 μg/mL, read-out: NO production inhibition rate
Description: An NO assay was performed to evaluate the nitric oxide (NO) production inhibition ability of the glycerol glucoside-based compound sample (EPS-S).
Specifically, subcultured RAW264.7 cells were aliquoted in a 96-well plate at 1×10^5 cells/well, and cultured for 24 hours at 37° C. in an incubator containing 5% carbon dioxide, and then, a culture media was replaced with a serum-free media. Then, each sample was diluted by concentration, treated onto the cell with LPS (final 1 μg/mL), and after culturing for 24 hours, the cell culture medium and a Griess reagent were reacted, and an absorbance was then measured at 540 nm with a microplate reader. Dexamethasone was used as a positive control group. After the test was conducted once, each absorbance value was substituted into Equation 2 below to obtain the NO production inhibition rate (%), and it was expressed as the mean±standard deviation.

[4] = tested on: COX-2 mRNA in RAW264.7 cells; assay: COX-2 mRNA expression analysis (RT-qPCR); format: cell-based, mouse; conditions: LPS 100 ng/mL
Description: An RT-qPCR was performed to evaluate an mRNA expression inhibition ability of COX-2 and iNOS of the glycerol glucoside-based compound sample (EPS-S).
Specifically, subcultured RAW264.7 cells were aliquoted into a 60 mm dish at 1.5×10^6 cells, and cultured at 37° C. in an incubator containing 5% carbon dioxide for 24 hours, and then a culture media was replaced with a serum-free media. Then, each sample was diluted by concentration and treated onto the cells with LPS (final 100 ng/mL). After culturing for 24 hours, cells were recovered, RNA was extracted, and cDNA was synthesized. For cDNA, qPCR was performed after mixing Real-time PCR Master Mix with TaqMan probes of each of COX-2 and iNOS. Dexamethasone was used as a positive control group. The test was conducted once, and the mRNA expression inhibition rate was obtained by analyzing the result by the ΔΔCt method, and then substituted into Equation 6 below to obtain the mRNA expression inhibition rate of COX-2 and iNOS of the treated sample group compared to the negative control group.

For `COCC(COC)OC1OC(CO)C(O)C(O)C1O` (stereo not shown) [EPS-S], which inhibition at 10 ppm ([1]; Mus musculus, RAW264.7, 24 h, 10 ppm, read-out: PGE2 production inhibitory ability) is on record?
The inhibition at 10 ppm was 28.3%.

And the inhibition at 100 ppm ([1]; Mus musculus, RAW264.7, 24 h, 100 ppm, read-out: PGE2 production inhibitory ability)?
The inhibition at 100 ppm was 36.5%.

And the inhibition at 500 ppm ([1]; Mus musculus, RAW264.7, 24 h, 500 ppm, read-out: PGE2 production inhibitory ability)?
Its inhibition at 500 ppm is 47.2%.

And the inhibition at 1000 ppm ([1]; Mus musculus, RAW264.7, 24 h, 1,000 ppm, read-out: PGE2 production inhibitory ability)?
Its inhibition at 1000 ppm is 94.1%.

What about the inhibition at 10 ppm ([2]; Mus musculus, RAW264.7, 24 h, 10 ppm, read-out: IL-6 production inhibition ability) of the same compound?
Its inhibition at 10 ppm is 10.1%.

What about the inhibition at 100 ppm ([2]; Mus musculus, RAW264.7, 24 h, 100 ppm, read-out: IL-6 production inhibition ability) of the same compound?
The inhibition at 100 ppm was 23.8%.

And the inhibition at 500 ppm ([2]; Mus musculus, RAW264.7, 24 h, 500 ppm, read-out: IL-6 production inhibition ability)?
Its inhibition at 500 ppm is 36.3%.

What about the inhibition at 1000 ppm ([2]; Mus musculus, RAW264.7, 24 h, 1,000 ppm, read-out: IL-6 production inhibition ability) of the same compound?
Its inhibition at 1000 ppm is 92.4%.

What about the inhibition at 1 ppm ([3]; 24 h, 1 ppm) of the same compound?
Its inhibition at 1 ppm is -5.66%.

And the inhibition at 10 ppm ([3]; 24 h, 10 ppm)?
Its inhibition at 10 ppm is 6.1%.

What about the inhibition at 100 ppm ([3]; 24 h, 100 ppm) of the same compound?
The inhibition at 100 ppm was 14.2%.

And the inhibition at 1000 ppm ([3]; 24 h, 1,000 ppm)?
Its inhibition at 1000 ppm is 30.3%.

And the “COX-2 mRNA expression inhibition rate” value ([4]; 24 h, 10 ppm)?
Its value is −9.09% and −9.09 ± 3.16%.

And the “COX-2 mRNA expression inhibition rate” value ([4]; 24 h, 100 ppm)?
The value was 74.44% and 74.44 ± 0.91%.

What about the “COX-2 mRNA expression inhibition rate” value ([4]; 24 h, 500 ppm) of the same compound?
Its value is 76.43% and 76.43 ± 1.11%.

And the “COX-2 mRNA expression inhibition rate” value ([4]; 24 h, 1,000 ppm)?
The value was 83.19% and 83.19 ± 1.30%.

`C[C@@H]1C[C@H]2[C@@H]3CCC4=CC(=O)C=C[C@]4(C)[C@@]3(F)[C@@H](O)C[C@]2(C)[C@@]1(O)C(=O)CO` [Dexamethasone] was tested. Which “PGE2 production inhibitory ability” value ([1]; 24 h, 10 Mm (10 μM)) did it give?
Its value is 83.55%.

What about the inhibition at 1 µM ([1]; Mus musculus, RAW264.7, 24 h, 1 μM, read-out: PGE2 production inhibitory ability) of the same compound?
Its inhibition at 1 µM is 62.3%.

And the inhibition at 5 µM ([1]; Mus musculus, RAW264.7, 24 h, 5 μM, read-out: PGE2 production inhibitory ability)?
Its inhibition at 5 µM is 81.4%.

And the inhibition at 20 µM ([1]; Mus musculus, RAW264.7, 24 h, 20 μM, read-out: PGE2 production inhibitory ability)?
Its inhibition at 20 µM is 86.4%.

And the inhibition at 80 µM ([1]; Mus musculus, RAW264.7, 24 h, 80 μM, read-out: PGE2 production inhibitory ability)?
Its inhibition at 80 µM is 96.4%.

What about the “IL-6 production inhibition ability” value ([2]; 24 h, 10 Mm (10 μM)) of the same compound?
Its value is 55.97%.

And the inhibition at 1 µM ([2]; Mus musculus, RAW264.7, 24 h, 1 μM, read-out: IL-6 production inhibition ability)?
Its inhibition at 1 µM is 12.7%.

And the inhibition at 5 µM ([2]; Mus musculus, RAW264.7, 24 h, 5 μM, read-out: IL-6 production inhibition ability)?
The inhibition at 5 µM was 48.4%.

And the inhibition at 20 µM ([2]; Mus musculus, RAW264.7, 24 h, 20 μM, read-out: IL-6 production inhibition ability)?
Its inhibition at 20 µM is 63.3%.

And the inhibition at 50 µM ([2]; Mus musculus, RAW264.7, 24 h, 50 μM (text b146), read-out: IL-6 production inhibition rate)?
The inhibition at 50 µM was 88.7%.

What about the inhibition at 10 µM ([3]; 24 h, 10 μM) of the same compound?
The inhibition at 10 µM was 15.6%.

And the inhibition at 20 µM ([3]; 24 h, 20 μM)?
Its inhibition at 20 µM is 18%.

What about the inhibition at 40 µM ([3]; 24 h, 40 μM) of the same compound?
The inhibition at 40 µM was 27.6%.

And the inhibition at 80 µM ([3]; 24 h, 80 μM)?
Its inhibition at 80 µM is 33.8%.

And the “COX-2 mRNA expression inhibition rate” value ([4]; 24 h, 1 μM)?
The value was 22.64 ± 1.27%.

And the “COX-2 mRNA expression inhibition rate” value ([4]; 24 h, 1 μM, listed as dexamethasone)?
The value was 22.64%.

And the “COX-2 mRNA expression inhibition rate” value ([4]; 24 h, 5 μM)?
Its value is 71.72 ± 0.69%.

And the “COX-2 mRNA expression inhibition rate” value ([4]; 24 h, 5 μM, listed as dexamethasone)?
The value was 71.72%.

And the “COX-2 mRNA expression inhibition rate” value ([4]; 24 h, 20 μM)?
Its value is 81.78 ± 0.60%.

And the “COX-2 mRNA expression inhibition rate” value ([4]; 24 h, 20 μM, listed as dexamethasone)?
The value was 81.78%.

What about the “COX-2 mRNA expression inhibition rate” value ([4]; 24 h, 80 μM) of the same compound?
The value was 84.23 ± 0.41%.

And the “COX-2 mRNA expression inhibition rate” value ([4]; 24 h, 80 μM, listed as dexamethasone)?
Its value is 84.23%.

And the “COX-2 mRNA expression inhibition rate” value ([4]; 24 h, 10 Mm (table head; text 10 μM))?
The value was 76.82 ± 1.73%.

And the “COX-2 mRNA expression inhibition rate” value ([4]; 24 h, 10 Mm (table head; text 10 μM), listed as dexamethasone)?
The value was 76.82%.
